Values quoted from earlier work as cited in patent US20150269865A1, “SYSTEMS AND METHODS FOR PERSONALIZED NUTRIMERS” (priority 2014, published 2015).
One block for each compound: values may come before it.

Legend:
[1] = molecular target: MTHFR (Homo sapiens, UniProt P42898); settings: cofactor of MTHFR or needs to be metabolized into Methyl folate
[2] = PMID 9630738
[3] = in vivo
[4] = PMID 9630738; compared with folic acid
[5] = orally administered, human absorption kinetic studies, PMID 3257913
[6] = PMID 21735411; compared with Ergocalciferol (vitamin D2)
[7] = PMID23482308
[8] = PMID23482308; remark: listed apart in the source
[9] = human subject treated even for a few months; PMID 23751310
[10] = test system: copper absorption; settings: PMID 1726403
[11] = in vivo; remark: listed apart in the source
[12] = human, in vivo

Sequence of MTHFR (P42898 whole entry): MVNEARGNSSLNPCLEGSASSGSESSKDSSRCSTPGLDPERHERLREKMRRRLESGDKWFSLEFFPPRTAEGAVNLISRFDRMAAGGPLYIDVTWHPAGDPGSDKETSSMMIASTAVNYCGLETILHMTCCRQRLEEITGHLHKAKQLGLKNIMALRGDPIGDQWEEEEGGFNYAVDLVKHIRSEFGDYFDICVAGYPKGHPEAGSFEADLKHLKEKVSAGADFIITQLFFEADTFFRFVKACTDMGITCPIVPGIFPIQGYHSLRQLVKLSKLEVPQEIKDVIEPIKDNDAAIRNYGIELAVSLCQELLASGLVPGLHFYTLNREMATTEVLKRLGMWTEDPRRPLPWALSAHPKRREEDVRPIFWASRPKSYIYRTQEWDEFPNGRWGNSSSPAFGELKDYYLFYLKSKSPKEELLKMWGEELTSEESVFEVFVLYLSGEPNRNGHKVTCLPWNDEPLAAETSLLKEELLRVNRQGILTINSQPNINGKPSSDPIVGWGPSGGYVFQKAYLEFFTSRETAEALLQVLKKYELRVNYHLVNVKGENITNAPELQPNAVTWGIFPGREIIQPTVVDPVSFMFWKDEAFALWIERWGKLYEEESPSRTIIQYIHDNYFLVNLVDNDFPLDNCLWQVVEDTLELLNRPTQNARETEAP

Compound: Nc1nc(=O)c2c([nH]1)NCC(CNc1ccc(C(=O)N[C@@H](CCC(=O)O)C(=O)O)cc1)N2C=O (mixture of isomers) [Folinic acid]
Cofactor [1]: Not a cofactor.
Stability: half-life in the body compared with folic acid [2]: longer half-life in
transport through the blood brain barrier into the central nervous system [3]: readily transported
Therapeutic effects [4]: more metabolically
bioavailability [5]: 92%

Compound: C=C1CC[C@H](O)C/C1=C/C=C1\CCC[C@]2(C)[C@@H]([C@H](C)CCCC(C)C)CC[C@@H]12 [Cholecalciferol]
effect on mortality [6]: decrease mortality

Compound: CN(C)C(=N)N=C(N)N [metformin]
effect on vitamin B12 and folate levels [9]: decrease of vitamin B12 and folate

Compound: [Zn] [zinc]
effect on copper absorption [10]: inhibits copper absorption

More lines, main results first:

Stability upon exposure to heat compared with natural forms of folate in the diet [7]: FA is more stable
Cofactor [1]: Not a cofactor.
Compound: Nc1nc2ncc(CNc3ccc(C(=O)N[C@@H](CCC(=O)O)C(=O)O)cc3)nc2c(=O)[nH]1 [Folic acid (FA), Folic acid]
Side effects: masking of vitamin B12 deficiency [8]: “does not mask

effect on absorption of desipramine (Norpramin) [11]: interferes with the absorption
Compound: Vitamin E

B12 intake above which absorbance declines with increased supplementation [12]: about 10 mcg
Compound: cobalamin [B12]
